Source: article PMC4161306, “Regulation of Arabidopsis Flowering by the Histone Mark Readers MRG1/2 via Interaction with CONSTANS to Modulate FT Expression” (PLoS Genetics, 2014)

Legend:
[1] = In vitro peptide pull-down from nuclear extracts with mass spectrometry; type: binding, Arabidopsis; settings: biotinylated H3 peptides (amino acids 21 to 44) on streptavidin-coated beads
Procedure: An in vitro peptide pull-down assay was used to identify the proteins that bind to histone H3 tail methylated at K36. Biotinylated histone H3 peptides (amino acids 21 to 44), with either unmethylated (control) or tri-methylated K36, were immobilized on the streptavidin-coated beads and incubated with Arabidopsis nuclear extracts. […] Members in this group have the same domain organization, with a chromodomain (chromatin organization modifier domain) near the N-terminus, and a MRG domain near the C-terminus (Figure S1). MRG2 has a homolog in Arabidopsis, MRG1, which shares with MRG2 49% identity and 65% similarity at the amino acid sequence level.

[2] = system: chromodomain of MRG2 (His-MRG2N); assay: Dot-blot / pull-down binding assay, His-MRG2N with methylated H3 peptides; parameters: species or system Arabidopsis; settings: Figure 1A, N-terminal His-tagged chromodomain, peptides residues 1–21 (K4, K9) or 21–44 (K27, K36)
Procedure: (§1) For the dot-blot binding assay, MRG1N (1–321, AT4G37280) and MRG2N (1–369, AT1G02740) cDNA were amplified by primers MRG1-1/MRG1-2 and MRG2-1/MRG2-2, respectively, and cloned into a pET-30a vector (Novagen, www.novagen.com). Site mutation was generated using a Takara MutanBEST Kit (http://www.takara-bio.com) with primers MRG2-3/MRG2-4. The in vitro binding assay of the chromodomain containing proteins with the histone peptides were performed as described previously. Methylated H3K4 (H3K4me1/2/3, residues 1–21), H3K9 (H3K9me1/2/3, residues 1–21), H3K27 (H3K27me1/2/3, residues 21–44), and H3K36 (H3K36me1/2/3, residues 21–44) peptides were synthesized by Scilight Biotechnology (http://www.scilight-peptide.com). Anti-monomethyl-H3K4 (07-436), anti-dimethyl-H3K4 (07-030), anti-trimethyl-H3K4 (07-473), anti-trimethyl-H3K9 (07-442), and anti-trimethyl-H3K27 (07-449) were purchased from Millipore (http://www.millipore.com), and anti-monomethyl-H3K36 (ab9048), anti-dimethyl-H3K36 (ab9049), and anti-trimethyl-H3K36 (ab9050) were purchased from Abcam (http://www.abcam.com).

[3] = system: chromodomain of MRG1 (His-MRG1N); assay: Dot-blot / pull-down binding assay, His-MRG1N with methylated H3 peptides; parameters: species or system Arabidopsis; settings: Figure 1A, N-terminal His-tagged chromodomain, peptides residues 1–21 (K4, K9) or 21–44 (K27, K36)
Procedure: as §1

[4] = system: Y87A substitution in MRG2 chromodomain (His-MRG2N(Y87A)); assay: Dot-blot binding assay, His-MRG2N(Y87A) with methylated H3 peptides; parameters: species or system Arabidopsis; settings: Figure 7B; Tyr87Ala mutation in MRG2
Procedure: as §1

EAF3 = settings: ref [29]; cited from earlier work
Excerpt: Firstly, via their chromodomain, MRG1/2 proteins act as readers that recognize methylated H3K4 and H3K36.

Substance	protein bound from nuclear extract [1]	binding to chromodomain of MRG2 [2]	binding to chromodomain of MRG1 [3]	association with MRG2 Y87A [4]	binding to EAF3 (EAF3)
H3 peptides tri-methylated at K36: Biotinylated histone H3 peptides (amino acids 21 to 44) with tri-methylated K36	identified MRG2				
H3K4me2: methylated H3K4 peptide, residues 1–21 (dot-blot)		could bind	could bind		
H3K4me3: methylated H3K4 peptide, residues 1–21 (dot-blot), Scilight Biotechnology		could bind	could bind	disrupted its association	only very weakly
H3K36me2: methylated H3K36 peptide, residues 21–44 (dot-blot)		could bind	could bind		
H3K36me3: methylated H3K36 peptide, residues 21–44 (dot-blot)		could bind	could bind	disrupted its association	bind
mono-methylated H3K4: methylated H3K4 peptide, residues 1–21 (dot-blot)			not		
mono-methylated H3K36: methylated H3K36 peptide, residues 21–44 (dot-blot)			not		
